# Measurements published in article PMC2857062 (The Journal of biological chemistry, 2010).
# How the values were obtained:
# [1] = target: Dock1 DHR-1 domain (422-619) (Homo sapiens, UniProt Q14185); experiment: ITC; format: binding
# [2] = target: Dock1 DHR-1 domain (422-619) (Homo sapiens, UniProt Q14185, D436Y); experiment: ITC; format: binding
# Dock1 DHR-1 domain (422-619) (Homo sapiens, UniProt Q14185, D436Y), sequence (Q14185 422-619 D436Y): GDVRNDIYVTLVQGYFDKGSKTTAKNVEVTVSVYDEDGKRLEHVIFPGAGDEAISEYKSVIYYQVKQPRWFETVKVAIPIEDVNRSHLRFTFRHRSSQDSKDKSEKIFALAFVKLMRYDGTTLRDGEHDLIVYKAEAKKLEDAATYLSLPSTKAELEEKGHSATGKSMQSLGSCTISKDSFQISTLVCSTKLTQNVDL
# Dock1 DHR-1 domain (422-619) (Homo sapiens, UniProt Q14185), sequence (Q14185 422-619): as the sequence (Q14185 422-619 D436Y) above, with Y15D counted along it
smiles,measurement,setting,value
"O=P(O)(O)O[C@H]1[C@H](O)[C@@H](OP(=O)(O)O)[C@H](OP(=O)(O)O)[C@@H](OP(=O)(O)O)[C@H]1O [Ins(1,3,4,5)P4]",Kd,[1],7.7 ± 3 µM
"CCCCCCCC(=O)OC[C@H](COP(=O)(O)O[C@H]1[C@H](O)[C@@H](OP(=O)(O)O)[C@H](OP(=O)(O)O)[C@@H](OP(=O)(O)O)[C@H]1O)OC(=O)CCCCCCC [di-C8-PtdIns(3,4,5)P3]",Kd,[2],3.4 µM
